In PubChem BioAssay AID248 (DTP/NCI, 2004):
“And” between values parts separate entries of the source, which are not always exact repeats. Equal values may be shown once. Inconclusive results and toxic doses are left out. Rule as the data show it: active = T/C of 150% or more; inactive = T/C below 125%.

Test system: L1210 leukemia ip in BDF1 mice, survival T/C
Test: NCI In Vivo Anticancer Drug Screen. Data for tumor model L1210 Leukemia (intraperitoneal) in B6D2F1 (BDF1) mice
Conditions: endpoint: mean survival time, higher = longer survival
Method in brief: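 Antitumor effect is assessed in tumor-bearing animals. Survival in the compound arm is compared with a vehicle-dosed control arm and expressed as their quotient.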

[1] = dose: 100.0 mg/kg/injection, schedule: Q01DX009 (ip), vehicle: saline with Tween-80
[2] = dose: 100.0 mg/kg/injection, schedule: Q04DX003 (ip), vehicle: saline with Tween-80
[3] = dose: 200.0 mg/kg/injection, schedule: Q01DX009 (ip), vehicle: saline with Tween-80
[4] = dose: 200.0 mg/kg/injection, schedule: Q04DX003 (ip), vehicle: saline with Tween-80
[5] = dose: 400.0 mg/kg/injection, schedule: Q01DX009 (ip), vehicle: saline with Tween-80
[6] = dose: 400.0 mg/kg/injection, schedule: Q04DX003 (ip), vehicle: saline with Tween-80
[7] = dose: 100.0 mg/kg/injection, schedule: Q04DX003 (ip), vehicle: Klucel (hydroxypropylcellulose) (HPC)
[8] = dose: 200.0 mg/kg/injection, schedule: Q04DX003 (ip), vehicle: Klucel (hydroxypropylcellulose) (HPC)
[9] = dose: 400.0 mg/kg/injection, schedule: Q04DX003 (ip), vehicle: Klucel (hydroxypropylcellulose) (HPC)
[10] = dose: 100.0 mg/kg/injection, schedule: Q01DX009 (ip), vehicle: Klucel (hydroxypropylcellulose) (HPC)
[11] = dose: 200.0 mg/kg/injection, schedule: Q01DX009 (ip), vehicle: Klucel (hydroxypropylcellulose) (HPC)
[12] = dose: 400.0 mg/kg/injection, schedule: Q01DX009 (ip), vehicle: Klucel (hydroxypropylcellulose) (HPC)
[13] = dose: 100.0 mg/kg/injection, schedule: Q04DX002 (ip), vehicle: Klucel (hydroxypropylcellulose) (HPC)
[14] = dose: 200.0 mg/kg/injection, schedule: Q04DX002 (ip), vehicle: Klucel (hydroxypropylcellulose) (HPC)
[15] = dose: 400.0 mg/kg/injection, schedule: Q04DX002 (ip), vehicle: Klucel (hydroxypropylcellulose) (HPC)
[16] = dose: 100.0 mg/kg/injection, schedule: Q01DX001 (ip), vehicle: carboxymethylcellulose (CMC)
[17] = dose: 200.0 mg/kg/injection, schedule: Q01DX001 (ip), vehicle: carboxymethylcellulose (CMC)
[18] = dose: 400.0 mg/kg/injection, schedule: Q01DX001 (ip), vehicle: carboxymethylcellulose (CMC)
[19] = dose: 50.0 mg/kg/injection, schedule: Q01DX001 (ip), vehicle: saline
[20] = dose: 100.0 mg/kg/injection, schedule: Q01DX001 (ip), vehicle: saline
[21] = dose: 200.0 mg/kg/injection, schedule: Q01DX001 (ip), vehicle: saline
[22] = dose: 400.0 mg/kg/injection, schedule: Q01DX001 (ip), vehicle: saline
[23] = dose: 100.0 mg/kg/injection, schedule: Q04DX003 (ip), vehicle: saline
[24] = dose: 200.0 mg/kg/injection, schedule: Q04DX003 (ip), vehicle: saline
[25] = dose: 400.0 mg/kg/injection, schedule: Q04DX003 (ip), vehicle: saline

Measured: T/C

CC(=O)OC1C=C2CCC3C(CCC4(C)C(OC(C)=O)CCC34)C2(C)CC1 (centres undefined)
inactive: dose: 12.5 mg/kg/injection, schedule: Q01DX009 (ip), vehicle: Klucel (hydroxypropylcellulose) (HPC) 92 % of control | dose: 25.0 mg/kg/injection, schedule: Q01DX009 (ip), vehicle: Klucel (hydroxypropylcellulose) (HPC) 92 % of control | dose: 50.0 mg/kg/injection, schedule: Q01DX009 (ip), vehicle: Klucel (hydroxypropylcellulose) (HPC) 90 % of control | dose: 75.0 mg/kg/injection, schedule: Q01DX009 (ip), vehicle: Klucel (hydroxypropylcellulose) (HPC) 101 % of control | dose: 115.0 mg/kg/injection, schedule: Q01DX009 (ip), vehicle: Klucel (hydroxypropylcellulose) (HPC) 98 % of control | dose: 170.0 mg/kg/injection, schedule: Q01DX009 (ip), vehicle: Klucel (hydroxypropylcellulose) (HPC) 95 % of control

CC(C)COC(=O)c1ccc(NC(=O)Nc2ccccc2)cc1
inactive: [1] 93 % of control | [2] 92 % of control | [3] 88 % of control | [4] 88 % of control | [5] 97 % of control | [6] 87 % of control

O=C(Nc1ccccc1)OC1CCCC1
inactive: [7] 101 % of control | [8] 101 % of control | [9] 96 % of control

Cc1cc(O)cc(=O)o1
inactive: [10] 97 % of control and 89 % of control | [7] 101 % of control and 86 % of control | [11] 95 % of control and 100 % of control | [8] 101 % of control and 103 % of control | [12] 94 % of control and 100 % of control | [9] 92 % of control and 102 % of control

C=CC1CCN(CCn2cc(C)c(=O)[nH]c2=O)CC1
inactive: [2] 101 % of control | [4] 107 % of control | [6] 101 % of control

CN(C)C(=S)SSSSC(=S)N(C)C
inactive: [13] 108 % of control | [14] 108 % of control | [15] 99 % of control and 90 % of control

CCC1CN1P1(=O)OCC(CC)([N+](=O)[O-])CO1 (centres undefined)
inactive: [16] 90 % of control | [17] 101 % of control | [18] 97 % of control

O=c1[nH]c2ccccc2c2ccc([N+](=O)[O-])cc12
inactive: [16] 95 % of control | [17] 106 % of control | [18] 93 % of control

O=C(O)/C(Br)=C(\Br)c1ccccc1
inactive: [1] 101 % of control | [3] 92 % of control | [5] 95 % of control

NC(=O)n1cnc(N)n1
inactive: [19] 98 % of control | [20] 98 % of control | [21] 104 % of control | [22] 107 % of control

CC(=O)Nc1cccc([As](=O)(c2cccc(NC(C)=O)c2)c2cccc(NC(C)=O)c2)c1
inactive: dose: 55.0 mg/kg/injection, schedule: Q01DX Z (ip), vehicle: methylcellulose (MC) 98 % of control | dose: 125.0 mg/kg/injection, schedule: Q01DX Z (ip), vehicle: methylcellulose (MC) 98 % of control

CC(=O)[O][Hg][CH]1Cc2ccccc2O1 (centres undefined)
inactive: dose: 15.0 mg/kg/injection, schedule: Q01DX001 (ip), vehicle: carboxymethylcellulose (CMC) 94 % of control

Cc1ccccc1C(c1ccccc1)N(C)C (centres undefined)
inactive: [19] 100 % of control | [20] 96 % of control | [21] 96 % of control | [22] 92 % of control

CCOC(=O)NC(=O)NC(=O)OCC
inactive: dose: 75.0 mg/kg/injection, schedule: Q01DX009 (ip), vehicle: saline sonified 92 % of control | [23] 107 % of control | dose: 150.0 mg/kg/injection, schedule: Q01DX009 (ip), vehicle: saline sonified 94 % of control | [24] 119 % of control | dose: 300.0 mg/kg/injection, schedule: Q01DX009 (ip), vehicle: saline sonified 96 % of control | [25] 104 % of control

C=Cc1c(C)c(O)cc2c1-c1ccc(O)c(C)c1CC2
inactive: dose: 6.25 mg/kg/injection, schedule: Q01DX009 (ip), vehicle: saline with Tween-80 102 % of control | dose: 12.5 mg/kg/injection, schedule: Q01DX009 (ip), vehicle: saline with Tween-80 102 % of control | dose: 25.0 mg/kg/injection, schedule: Q01DX009 (ip), vehicle: saline with Tween-80 98 % of control | dose: 50.0 mg/kg/injection, schedule: Q01DX009 (ip), vehicle: saline with Tween-80 91 % of control

CC(=O)c1ccc(Cl)cc1
inactive: [16] 91 % of control | [17] 91 % of control | [18] 97 % of control

COc1cc(Br)c(CC2c3cc(OCc4ccccc4)c(OC)cc3CCN2C)cc1OC (centres undefined)
inactive: dose: 100.0 mg/kg/injection, schedule: Q04DX003 (ip), vehicle: acetone 112 % of control

N#CCCN(NC(=O)OCc1ccccc1)C(=O)OCc1ccccc1
inactive: [16] 95 % of control | [17] 89 % of control | [18] 95 % of control

c1ccc(C2=NNC(c3ccccn3)=NN2)nc1
inactive: [2] 96 % of control | [4] 96 % of control | [6] 102 % of control

CCN(CC)C(=O)N1C2CCC1CN(C)C2
inactive: dose: 12.5 mg/kg/injection, schedule: Q01DX009 (ip), vehicle: saline 91 % of control | dose: 12.5 mg/kg/injection, schedule: Q04DX003 (ip), vehicle: saline 103 % of control | dose: 25.0 mg/kg/injection, schedule: Q01DX009 (ip), vehicle: saline 95 % of control | dose: 25.0 mg/kg/injection, schedule: Q04DX003 (ip), vehicle: saline 105 % of control | dose: 50.0 mg/kg/injection, schedule: Q01DX009 (ip), vehicle: saline 86 % of control | dose: 50.0 mg/kg/injection, schedule: Q04DX003 (ip), vehicle: saline 89 % of control

CC(C)=CCc1c(N)nc(N)[nH]c1=O
inactive: [13] 98 % of control | [14] 98 % of control | [15] 106 % of control

c1ccc(-n2ncn[n+]2-c2ccccc2)cc1
inactive: dose: 10.0 mg/kg/injection, schedule: Q01DX001 (ip), vehicle: saline 98 % of control | dose: 20.0 mg/kg/injection, schedule: Q01DX001 (ip), vehicle: saline 90 % of control | dose: 40.0 mg/kg/injection, schedule: Q01DX001 (ip), vehicle: saline 95 % of control | dose: 80.0 mg/kg/injection, schedule: Q01DX001 (ip), vehicle: saline 109 % of control

Cc1cccc(/C2=C/CCCCCC2)c1
inactive: dose: 37.5 mg/kg/injection, schedule: Q01DX009 (ip), vehicle: saline 100 % of control | dose: 75.0 mg/kg/injection, schedule: Q01DX001 (ip), vehicle: acetone 89 % of control | dose: 75.0 mg/kg/injection, schedule: Q01DX009 (ip), vehicle: saline 103 % of control | dose: 150.0 mg/kg/injection, schedule: Q01DX001 (ip), vehicle: acetone 88 % of control | dose: 150.0 mg/kg/injection, schedule: Q01DX009 (ip), vehicle: saline 115 % of control | dose: 225.0 mg/kg/injection, schedule: Q01DX009 (ip), vehicle: acetone 92 % of control | dose: 300.0 mg/kg/injection, schedule: Q01DX001 (ip), vehicle: acetone 93 % of control

CCN(CC)C(N)=S
inactive: [10] 108 % of control | [7] 106 % of control | [11] 100 % of control | [8] 103 % of control | [12] 100 % of control | [9] 112 % of control

C/C(=N\O)C(C)(C)C
inactive: dose: 25.0 mg/kg/injection, schedule: Q04DX002 (ip), vehicle: Klucel (hydroxypropylcellulose) (HPC) 98 % of control | dose: 50.0 mg/kg/injection, schedule: Q04DX002 (ip), vehicle: Klucel (hydroxypropylcellulose) (HPC) 91 % of control | [13] 94 % of control and 103 % of control

CCOC(=O)CNC(=O)C(O)C(O)C(O)C(O)CO (centres undefined)
inactive: [23] 102 % of control | [24] 97 % of control | [25] 91 % of control
